Test results from PubChem BioAssay AID1963983 (Molecular Pharmacology Branch, DTP, NCI, 2024).

Tested on: 186277-243-T-J2-PDC multi-cell spheroid viability
Test: Anticancer human tumor 186277-243-T-J2-PDC patient-derived colon adenocarcinoma cell line growth inhibition [PI3K]
Details: for IC50: curve of first compound; for viability, T/C: stronger effect = lower value
From the text: Combinatorial screen of targeted agents with the PI3K inhibitors inavolisib, alpelisib, duvelisib, and copanlisib in multi-cell type tumor spheroids
A high-throughput screen of multi-cell type tumor spheroids was designed to identify active combinations of targeted small molecules and PI3K pathway inhibitors. Complex spheroids include a stromal component modeled by human endothelial cells (HUVEC) and fibroblasts modeled by human mesenchymal stem cells (MSCs). The concentration ranges selected for each drug and investigational agent were based upon clinically achievable concentrations if the clinical Cmax of the agent was known.
Compounds. The drugs and investigational agents: inavolisib (NSC800729), alpelisib (NSC765974), duvelisib (NSC772469), copanlisib (NSC816437), ipatasertib (NSC767898), afuresertib (NSC778305), talazoparib (NSC767125), sapanisertib (NSC764658), selumetinib (NSC741078), tovorafenib (DAY101, NSC766906), vemurafenib (NSC761431), ravoxertinib (NSC781343), sotorasib (NSC818433), MRTX1133 (NSC 836407), abemaciclib (NSC 768073), palbociclib (NSC758247), venetoclax (NSC 766270), SY5609 (NSC837396), enzalutamide (NSC755605), and darolutamide (NSC825331), were obtained from the National Cancer Institute (NCI) Developmental Therapeutics Program Chemical Repository. The FDA-approved anticancer drug set is available from the NCI Developmental Therapeutics Program. […] The stock solutions were prepared in dimethyl sulfoxide (DMSO, Sigma-Aldrich, St. Louis, MO, cat. D2650) at 800-fold the tested concentration and stored at -70 degrees C prior to their use. All drugs and investigational agents were tested over a range starting from a high concentration at or near the clinical Cmax and decreasing in half-log increments. If the clinical Cmax for an agent had not been determined, the highest concentration tested was 10 microM.
Cell Culture. All cells were maintained in an incubator at 37 degrees C and 5% CO2 with 95% humidity. The PDC lines were cultured according to standard operating procedures established by the NCI PDMR (https://pdmr.cancer.gov/sops/default.htm). All PDCs were thawed and cultured in Matrigel-coated flasks prepared with a working solution of 1X Ham's F-12 nutrient mix, without supplementation (Invitrogen, Waltham, MA, cat. 11765054), 100 U/mL penicillin-streptomycin (Invitrogen, cat. 15140122), and 2.5% Matrigel (Corning Inc., Corning, NY, cat. 354248) for the first three passages. The 354836-022-R-J1-PDC, 475296-252-R-J1-PDC, and 997726-040-R-J2-PDC lines were cultured in 6A media, which includes advanced DMEM/F-12 (Thermo Fisher Scientific, cat. 12634028), 10 mM HEPES (Thermo Fisher Scientific, cat. 15630080), 1X GlutaMAX supplement (Thermo Fisher Scientific, cat. 35050061), 0.1 mg/mL primocin (InvivoGen, San Diego, CA, cat. ant-pm-2), 10% defined fetal bovine serum, heat inactivated (HyClone Laboratories Inc., Logan, UT, cat. SH30070.03HI), 50% L-WRN conditioned media (ATCC, cat. CRL-3276), 1.25 mM N-Acetyl-L-cysteine (Sigma-Aldrich, cat. A9165), 10 mM nicotinamide (Sigma-Aldrich, cat. N0636), 1X B-27 supplement (Thermo Fisher Scientific, cat. 17504044), 1X N-2 supplement (Thermo Fisher Scientific, cat. 17502048), and 10 microM Y-27632 dihydrochloride (Tocris Bioscience, Bristol, United Kingdom, cat. 1254). The 624824-186-R-J2-PDC line was cultured in 6C/Colon 1B media, which includes all 6A media components plus 50 ng/mL human EGF recombinant protein (Thermo Fisher Scientific, cat. PHG0311). […]

[1] = second compound 0.0316 µM, first compound 0.0316 µM
[2] = second compound 0.0316 µM, first compound 0.1 µM
[3] = second compound 0.1 µM, first compound 0.0316 µM
[4] = second compound 0.1 µM, first compound 0.1 µM
[5] = second compound 0.316 µM, first compound 0.0316 µM
[6] = second compound 0.316 µM, first compound 0.1 µM
[7] = second compound 1 µM, first compound 0.0316 µM
[8] = second compound 1 µM, first compound 0.1 µM
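Also: spheroids exposed to compounds for seven days before viability reading.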
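For viability, T/C in this document: 100% = DMSO vehicle control viability.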

For `CC(C)n1nc(-c2ccc3oc(N)nc3c2)c2c(N)ncnc21` + COc1c(OCCCN2CCOCC2)ccc2c3n(c(=NC(=O)c4cnc(N)nc4)nc12)CCN3, the IC50 (second compound 0.00316 µM) was 49.7 nM, the IC50 (second compound 0.01 µM) was 42.2 nM and the IC50 (second compound 0.0316 µM) was 5.38 nM. It also gave an IC50 (second compound 0.1 µM) of under 0.316 nM, an IC50 (second compound 0.316 µM) of under 0.316 nM and an IC50 (second compound 1 µM) of under 0.316 nM. For the same molecule, the viability, T/C (second compound 0.00316 µM, first compound 0.000316 µM) was 108%, the viability, T/C (second compound 0.00316 µM, first compound 0.001 µM) was 81.1% and the viability, T/C (second compound 0.00316 µM, first compound 0.00316 µM) was 97.7%. It also gave a viability, T/C (second compound 0.00316 µM, first compound 0.01 µM) of 82.9%, a viability, T/C (second compound 0.00316 µM, first compound 0.0316 µM) of 70.8% and a viability, T/C (second compound 0.00316 µM, first compound 0.1 µM) of 21.2%. For the same molecule, the viability, T/C (second compound 0.01 µM, first compound 0.000316 µM) was 97.5%, the viability, T/C (second compound 0.01 µM, first compound 0.001 µM) was 103% and the viability, T/C (second compound 0.01 µM, first compound 0.00316 µM) was 86.5%. For the same molecule, the viability, T/C (second compound 0.01 µM, first compound 0.01 µM) was 89.8%, the viability, T/C (second compound 0.01 µM, first compound 0.0316 µM) was 61% and the viability, T/C (second compound 0.01 µM, first compound 0.1 µM) was 14.7%. The viability, T/C (second compound 0.0316 µM, first compound 0.000316 µM) was 74.2%, the viability, T/C (second compound 0.0316 µM, first compound 0.001 µM) was 70.6% and the viability, T/C (second compound 0.0316 µM, first compound 0.00316 µM) was 59.5%. For the same molecule, the viability, T/C (second compound 0.0316 µM, first compound 0.01 µM) was 39%, the viability, T/C [1] was 17.1% and the viability, T/C [2] was 6.6%. It also gave a viability, T/C (second compound 0.1 µM, first compound 0.000316 µM) of 17%, a viability, T/C (second compound 0.1 µM, first compound 0.001 µM) of 17.5% and a viability, T/C (second compound 0.1 µM, first compound 0.00316 µM) of 14.3%. It also gave a viability, T/C (second compound 0.1 µM, first compound 0.01 µM) of 9.3%, a viability, T/C [3] of 8.21% and a viability, T/C [4] of 3.59%. For the same molecule, the viability, T/C (second compound 0.316 µM, first compound 0.000316 µM) was 4.14%, the viability, T/C (second compound 0.316 µM, first compound 0.001 µM) was 7.06% and the viability, T/C (second compound 0.316 µM, first compound 0.00316 µM) was 4.26%. For the same molecule, the viability, T/C (second compound 0.316 µM, first compound 0.01 µM) was 4.69%, the viability, T/C [5] was 2.78% and the viability, T/C [6] was 2.4%. The viability, T/C (second compound 1 µM, first compound 0.000316 µM) was 3.07%, the viability, T/C (second compound 1 µM, first compound 0.001 µM) was 1.73% and the viability, T/C (second compound 1 µM, first compound 0.00316 µM) was 3%. The viability, T/C (second compound 1 µM, first compound 0.01 µM) was 1.5%, the viability, T/C [7] was 3.24% and the viability, T/C [8] was 1.04%.

With `Cn1nccc1Nc1nccc(-c2ccn(C(CO)c3ccc(Cl)c(F)c3)c(=O)c2)n1` (centres undefined) + CC(Nc1ncnc2nc[nH]c12)c1cc2cccc(Cl)c2c(=O)n1-c1ccccc1 the IC50 (second compound 0.0316 µM) was 2800 nM, the IC50 (second compound 0.1 µM) was 2380 nM and the IC50 (second compound 0.316 µM) was 2400 nM. It also gave an IC50 (second compound 1 µM) of 2090 nM, an IC50 (second compound 3.16 µM) of 1160 nM and an IC50 (second compound 10 µM) of 339 nM. For the same molecule, the viability, T/C [1] was 82.5%, the viability, T/C [2] was 86.9% and the viability, T/C (second compound 0.0316 µM, first compound 0.316 µM) was 112%. It also gave a viability, T/C (second compound 0.0316 µM, first compound 1 µM) of 83.7%, a viability, T/C (second compound 0.0316 µM, first compound 3.16 µM) of 46.3% and a viability, T/C (second compound 0.0316 µM, first compound 10 µM) of 23.6%. The viability, T/C [3] was 85.3%, the viability, T/C [4] was 103% and the viability, T/C (second compound 0.1 µM, first compound 0.316 µM) was 107%. The viability, T/C (second compound 0.1 µM, first compound 1 µM) was 89.1%, the viability, T/C (second compound 0.1 µM, first compound 3.16 µM) was 37.2% and the viability, T/C (second compound 0.1 µM, first compound 10 µM) was 26.2%. The viability, T/C [5] was 94.7%, the viability, T/C [6] was 96.1% and the viability, T/C (second compound 0.316 µM, first compound 0.316 µM) was 125%. The viability, T/C (second compound 0.316 µM, first compound 1 µM) was 83.1%, the viability, T/C (second compound 0.316 µM, first compound 3.16 µM) was 40.9% and the viability, T/C (second compound 0.316 µM, first compound 10 µM) was 23.7%. The viability, T/C [7] was 94.3%, the viability, T/C [8] was 101% and the viability, T/C (second compound 1 µM, first compound 0.316 µM) was 103%. The viability, T/C (second compound 1 µM, first compound 1 µM) was 75.7%, the viability, T/C (second compound 1 µM, first compound 3.16 µM) was 36.3% and the viability, T/C (second compound 1 µM, first compound 10 µM) was 24.3%. It also gave a viability, T/C (second compound 3.16 µM, first compound 0.0316 µM) of 106%, a viability, T/C (second compound 3.16 µM, first compound 0.1 µM) of 100% and a viability, T/C (second compound 3.16 µM, first compound 0.316 µM) of 105%. The viability, T/C (second compound 3.16 µM, first compound 1 µM) was 53.9%, the viability, T/C (second compound 3.16 µM, first compound 3.16 µM) was 27.6% and the viability, T/C (second compound 3.16 µM, first compound 10 µM) was 20.8%. For the same molecule, the viability, T/C (second compound 10 µM, first compound 0.0316 µM) was 88.7%, the viability, T/C (second compound 10 µM, first compound 0.1 µM) was 91.4% and the viability, T/C (second compound 10 µM, first compound 0.316 µM) was 51%. For the same molecule, the viability, T/C (second compound 10 µM, first compound 1 µM) was 27.5%, the viability, T/C (second compound 10 µM, first compound 3.16 µM) was 24.5% and the viability, T/C (second compound 10 µM, first compound 10 µM) was 15.5%.
